The values that follow come from patent US8969530B2, “Anti-clathrin heavy chain monoclonal antibody for inhibition of tumor angiogenesis and growth and application thereof” (Academia Sinica, priority 2011, dated 2015).

Assay [1] has as its system HIF-1α protein in MIA PaCa-2 cells. Kind of assay: HIF-1α protein level and stability in CHC knockdown cells (Western blot). Format: cell-based, human. The conditions noted are these: MG132 10 μM, DFX 100 μM. The method, then:
Cells were extracted with RIPA buffer and the supernatants were immunoprecipitated using either anti-CHC antibody, Pa65-2, mAb X-22 (Affinity), or anti-HIF-1α antibody (BD), then analyzed by immunoblotting. The signals were developed using enhanced chemiluminescence reagents (ECL) (Thermo).
For hypoxia experiments, MIA PaCa-2 cells were grown in a Ruskinn Hypoxic Chamber (APM-50D, 18 Astec, Japan) and treated with either 1% O2, 5% CO2 for 18 h, or given DFX, deferoxamine (100 μM, Sigma) treatment for 5 or 16 h. For proteasome inhibitor treatment, MG132 (10 μM, Sigma) was added to culture medium then incubated 5 to 17 h.
(In western blotting, separated proteins are transferred to a membrane and probed.)

In a further assay the test system is pancreatic cancer. The conditions noted are these: cited from earlier work.

Where a SMILES comes first, the peptide text is derived from it. The star is where a group is joined. Cbz = O=C(OCc1ccccc1)*

As to `CC(C)C[C@@H](C=O)NC(=O)[C@H](CC(C)C)NC(=O)[C@H](CC(C)C)NC(=O)OCc1ccccc1` [MG132] (Cbz-Leu-Leu-Leu-aldehyde), in assay [1], the “decreased protein level of HIF-1α in CHC knockdown cells” value is listed as “rescued”. Turning to `Nc1ccn([C@@H]2O[C@H](CO)[C@@H](O)C2(F)F)c(=O)n1` [gemcitabine], the “effectiveness in treating pancreatic cancer” value in the assay with pancreatic cancer (most commonly used medicine) was “only moderately effective”. For the molecule bevacizumab, the “improvement in overall survival of pancreatic cancer patients” value with pancreatic cancer (clinical trial, in combination with small molecule drugs) is on record as “no significant improvement”.
